From PubChem BioAssay (NCI)
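Following 48 hours of exposure in 96-well plates, responses at five concentrations were used to interpolate endpoints linearly. The concentration for 50% growth inhibition is given as GI50. TGI is the concentration that stops growth completely.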

Tests used:
Assay in all cases: NCI tumour cell line growth inhibition, 48 h
HL-60(TB) leukemia = system: HL-60(TB) leukemia
K-562 leukemia = system: K-562 leukemia
HCC-2998 colon = system: HCC-2998 colon
786-0 renal = system: 786-0 renal
EKVX NSCLC = system: EKVX NSCLC
NCI-H226 lung = system: NCI-H226 lung
HT29 colon = system: HT29 colon
T-47D breast = system: T-47D breast
M14 melanoma = system: M14 melanoma
IGROV1 ovarian = system: IGROV1 ovarian
NCI/ADR-RES ovarian = system: NCI/ADR-RES ovarian
BT-549 breast = system: BT-549 breast
U251 CNS = system: U251 CNS
SF-295 CNS = system: SF-295 CNS
PC-3 prostate = system: PC-3 prostate
SW-620 colon = system: SW-620 colon
LOX IMVI melanoma = system: LOX IMVI melanoma
SR leukemia = system: SR leukemia
SN12C renal = system: SN12C renal
A498 renal = system: A498 renal
MALME-3M melanoma = system: MALME-3M melanoma
ACHN renal = system: ACHN renal
SNB-19 CNS = system: SNB-19 CNS
SK-MEL-2 melanoma = system: SK-MEL-2 melanoma
MDA-MB-468 breast = system: MDA-MB-468 breast
UACC-257 melanoma = system: UACC-257 melanoma
KM12 colon = system: KM12 colon
RPMI-8226 leukemia = system: RPMI-8226 leukemia
UACC-62 melanoma = system: UACC-62 melanoma
COLO 205 colon = system: COLO 205 colon
CCRF-CEM leukemia = system: CCRF-CEM leukemia
CAKI-1 renal = system: CAKI-1 renal
SK-MEL-28 melanoma = system: SK-MEL-28 melanoma
NCI-H522 lung = system: NCI-H522 lung
HCT-15 colon = system: HCT-15 colon
MDA-MB-231 breast = system: MDA-MB-231 breast
NCI-H460 lung = system: NCI-H460 lung
OVCAR-5 ovarian = system: OVCAR-5 ovarian
MCF7 breast = system: MCF7 breast
NCI-H23 lung = system: NCI-H23 lung
SK-MEL-5 melanoma = system: SK-MEL-5 melanoma
MOLT-4 leukemia = system: MOLT-4 leukemia
SF-268 CNS = system: SF-268 CNS
OVCAR-4 ovarian = system: OVCAR-4 ovarian
SK-OV-3 ovarian = system: SK-OV-3 ovarian
DU-145 prostate = system: DU-145 prostate
TK-10 renal = system: TK-10 renal
HS 578T breast = system: HS 578T breast
OVCAR-3 ovarian = system: OVCAR-3 ovarian
MDA-MB-435 = system: MDA-MB-435
HOP-92 NSCLC = system: HOP-92 NSCLC
SNB-75 CNS = system: SNB-75 CNS
OVCAR-8 ovarian = system: OVCAR-8 ovarian
A549 NSCLC = system: A549 NSCLC
SF-539 CNS = system: SF-539 CNS
HCT-116 colon = system: HCT-116 colon
RXF 393 renal = system: RXF 393 renal
HOP-62 NSCLC = system: HOP-62 NSCLC
UO-31 renal = system: UO-31 renal

Compound: Nc1nc2cc(-c3ccc4ncnc(NCc5ccccc5)c4c3)ccc2o1
- GI50 (HL-60(TB) leukemia): 10.4 µM
- TGI (HL-60(TB) leukemia): 24 µM
- GI50 (K-562 leukemia): 11.2 µM
- TGI (K-562 leukemia): 23.2 µM
- GI50 (HCC-2998 colon): 9.11 µM
- TGI (HCC-2998 colon): 23 µM
- GI50 (786-0 renal): 13 µM
- TGI (786-0 renal): 26.3 µM
- GI50 (EKVX NSCLC): 3.47 µM
- TGI (EKVX NSCLC): 20.2 µM
- GI50 (NCI-H226 lung): 10.1 µM
- TGI (NCI-H226 lung): 39.4 µM
- GI50 (HT29 colon): 7.45 µM
- TGI (HT29 colon): 58.3 µM
- GI50 (T-47D breast): 10.4 µM
- TGI (T-47D breast): 35.3 µM
- GI50 (M14 melanoma): 12.4 µM
- TGI (M14 melanoma): 35.6 µM
- GI50 (IGROV1 ovarian): 1.98 µM
- TGI (IGROV1 ovarian): 5.5 µM
- GI50 (NCI/ADR-RES ovarian): 11 µM
- TGI (NCI/ADR-RES ovarian): 49.5 µM
- GI50 (BT-549 breast): 4.31 µM
- TGI (BT-549 breast): 16.7 µM
- GI50 (U251 CNS): 10.4 µM
- TGI (U251 CNS): 32.6 µM
- GI50 (SF-295 CNS): 14.1 µM
- TGI (SF-295 CNS): 35 µM
- GI50 (PC-3 prostate): 12.7 µM
- TGI (PC-3 prostate): 31.9 µM
- GI50 (SW-620 colon): 9.63 µM
- TGI (SW-620 colon): 31.1 µM
- GI50 (LOX IMVI melanoma): 3.07 µM
- TGI (LOX IMVI melanoma): 15.9 µM
- GI50 (SR leukemia): 10.3 µM
- TGI (SR leukemia): 27.6 µM
- GI50 (SN12C renal): 5.14 µM
- TGI (SN12C renal): 18.3 µM
- GI50 (A498 renal): 3.55 µM
- TGI (A498 renal): 18.1 µM
- GI50 (MALME-3M melanoma): 3.2 µM
- TGI (MALME-3M melanoma): 13.3 µM
- GI50 (ACHN renal): 5.27 µM
- TGI (ACHN renal): 18.2 µM
- GI50 (SNB-19 CNS): 10.8 µM
- TGI (SNB-19 CNS): 25.4 µM
- GI50 (SK-MEL-2 melanoma): 14.7 µM
- TGI (SK-MEL-2 melanoma): 30.6 µM
- GI50 (MDA-MB-468 breast): 1.81 µM
- TGI (MDA-MB-468 breast): 7.67 µM
- GI50 (UACC-257 melanoma): 14.4 µM
- TGI (UACC-257 melanoma): 32.2 µM
- GI50 (KM12 colon): 6.77 µM
- TGI (KM12 colon): 25.6 µM
- GI50 (RPMI-8226 leukemia): 3.83 µM
- TGI (RPMI-8226 leukemia): 22.3 µM
- GI50 (UACC-62 melanoma): 14.7 µM
- TGI (UACC-62 melanoma): 29.6 µM
- GI50 (COLO 205 colon): 14.4 µM
- TGI (COLO 205 colon): 30 µM
- GI50 (CCRF-CEM leukemia): 6.08 µM
- TGI (CCRF-CEM leukemia): 30.2 µM
- GI50 (CAKI-1 renal): 7.7 µM
- TGI (CAKI-1 renal): 21 µM
- GI50 (SK-MEL-28 melanoma): 12.4 µM
- TGI (SK-MEL-28 melanoma): 24.8 µM
- GI50 (NCI-H522 lung): 8.72 µM
- TGI (NCI-H522 lung): 38.4 µM
- GI50 (HCT-15 colon): 6.45 µM
- TGI (HCT-15 colon): 27.3 µM
- GI50 (MDA-MB-231 breast): 7.96 µM
- TGI (MDA-MB-231 breast): 21.4 µM
- GI50 (NCI-H460 lung): 6.48 µM
- TGI (NCI-H460 lung): 27.7 µM
- GI50 (OVCAR-5 ovarian): 4.03 µM
- TGI (OVCAR-5 ovarian): 16.9 µM
- GI50 (MCF7 breast): 2.47 µM
- TGI (MCF7 breast): 11.1 µM
- GI50 (NCI-H23 lung): 10.9 µM
- TGI (NCI-H23 lung): 35.6 µM
- GI50 (SK-MEL-5 melanoma): 12.2 µM
- TGI (SK-MEL-5 melanoma): 28.1 µM
- GI50 (MOLT-4 leukemia): 4.43 µM
- TGI (MOLT-4 leukemia): 19 µM
- GI50 (SF-268 CNS): 10.9 µM
- TGI (SF-268 CNS): 43.4 µM
- GI50 (OVCAR-4 ovarian): 7 µM
- TGI (OVCAR-4 ovarian): 28.1 µM
- GI50 (SK-OV-3 ovarian): 3.26 µM
- TGI (SK-OV-3 ovarian): 12.1 µM
- GI50 (DU-145 prostate): 4.7 µM
- TGI (DU-145 prostate): 20.5 µM
- GI50 (TK-10 renal): 2.98 µM
- TGI (TK-10 renal): 16.1 µM
- GI50 (HS 578T breast): 2.41 µM
- TGI (HS 578T breast): 7.52 µM
- GI50 (OVCAR-3 ovarian): 3.49 µM
- TGI (OVCAR-3 ovarian): 21.6 µM
- GI50 (MDA-MB-435): 11 µM
- TGI (MDA-MB-435): 24.6 µM
- GI50 (HOP-92 NSCLC): 2.11 µM
- TGI (HOP-92 NSCLC): 7.5 µM
- GI50 (SNB-75 CNS): 2.15 µM
- TGI (SNB-75 CNS): 5.24 µM
- GI50 (OVCAR-8 ovarian): 3.41 µM
- TGI (OVCAR-8 ovarian): 17.7 µM
- GI50 (A549 NSCLC): 4.16 µM
- TGI (A549 NSCLC): 29.4 µM
- GI50 (SF-539 CNS): 4.08 µM
- TGI (SF-539 CNS): 14.9 µM
- GI50 (HCT-116 colon): 3.89 µM
- TGI (HCT-116 colon): 17.5 µM
- GI50 (RXF 393 renal): 3.62 µM
- TGI (RXF 393 renal): 16.3 µM
- GI50 (HOP-62 NSCLC): 10.7 µM
- TGI (HOP-62 NSCLC): 34.3 µM
- GI50 (UO-31 renal): 4.01 µM
- TGI (UO-31 renal): 18.3 µM
